From PubChem BioAssay (NCI) come the findings set out here.

Among the test systems are HOP-62 NSCLC; U251 CNS; SK-MEL-5 melanoma; MOLT-4 leukemia; UACC-257 melanoma; SF-268 CNS; SW-620 colon; HCC-2998 colon; CAKI-1 renal; OVCAR-4 ovarian.
What all share (test): growth of human tumour cells (NCI), 48 h

“And” between values parts separate entries of the source, which are not always exact repeats. Identical values can stand only once.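 Following 48 hours of exposure in 96-well plates, responses at five concentrations were used to interpolate endpoints linearly. The concentration for 50% growth inhibition is given as GI50. The concentration for full growth arrest is given as TGI.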

As to `Cc1c2cnccc2c(C)c2c1c1cc(C3OCCCO3)ccc1n2C`, the GI50 in the test on HOP-62 NSCLC is 0.286 µM; with U251 CNS, 0.308 µM; in the test with SK-MEL-5 melanoma, 0.379 µM; in the test with MOLT-4 leukemia it was 0.332 µM; with UACC-257 melanoma, 0.343 µM; in the test on SF-268 CNS it was 0.268 µM. For the same molecule, the GI50 was 0.205 µM with SW-620 colon, 0.659 µM in the test with HCC-2998 colon, 0.314 µM in the test on CAKI-1 renal and 0.264 µM with OVCAR-4 ovarian. For the same molecule, the TGI in the test on HOP-62 NSCLC amounted to 1.82 µM; with U251 CNS, 1.33 µM; in the test on SK-MEL-5 melanoma, 1.44 µM; in the test on MOLT-4 leukemia it was 1.74 µM; in the test on UACC-257 melanoma, 1.8 µM; with SF-268 CNS, 1.71 µM. In addition, the TGI in the test on SW-620 colon worked out at 1.64 µM; in the test with HCC-2998 colon it was 2.94 µM; in the test with CAKI-1 renal it was 3.45 µM; in the test with OVCAR-4 ovarian it was 1.12 µM.

Consider `O=[N+]([O-])c1ccc(Nc2ccccc2-c2ccccc2)c2nonc12`, for which the GI50 in the test on HOP-62 NSCLC is 17.4 µM; in the test on U251 CNS, 13.4 µM; in the test with SK-MEL-5 melanoma, 6 µM; with MOLT-4 leukemia, 20 µM; with UACC-257 melanoma, 12.3 µM; with SF-268 CNS, 14.9 µM. In addition, the GI50 in the test with SW-620 colon is 18 µM; in the test on HCC-2998 colon, 11.7 µM; in the test on CAKI-1 renal, 12.3 µM; in the test with OVCAR-4 ovarian it was 9.5 µM. For the same molecule, the TGI in the test on HOP-62 NSCLC stood at 42.7 µM; in the test with U251 CNS, 29.3 µM; in the test on SK-MEL-5 melanoma it was 18.8 µM; with MOLT-4 leukemia, 88.2 µM; in the test with UACC-257 melanoma it was 79.1 µM; with SF-268 CNS, 36.8 µM. Besides, the TGI is 44.8 µM in the test on SW-620 colon, 27.2 µM in the test with HCC-2998 colon, 50.2 µM in the test on CAKI-1 renal and greater than 100 µM in the test with OVCAR-4 ovarian.

`COc1ccc(/C(=N/NC(N)=O)C2(O)C(=O)Nc3ccc([N+](=O)[O-])cc32)cc1` (stereo not drawn): the TGI in the test with HOP-62 NSCLC is greater than 100 µM; with U251 CNS, greater than 10 µM; in the test on SK-MEL-5 melanoma, 77.2 µM; in the test with MOLT-4 leukemia it was 50 µM; in the test with UACC-257 melanoma it was 39.4 µM; with SF-268 CNS, 40.6 µM. Also, the TGI is 50.8 µM with SW-620 colon, greater than 100 µM in the test with HCC-2998 colon, 57.7 µM in the test on CAKI-1 renal and 27.1 µM with OVCAR-4 ovarian.

For `COc1cccc2c1C(=O)c1c(O)c3c(c(O)c1C2=O)CC(O)(C(C)=O)CC3OC1CC(N)C(O)C(C)O1` (stereo not drawn), the GI50 with HOP-62 NSCLC was 0.0221 µg/mL; in the test on U251 CNS it was 0.0151 µg/mL; in the test with SK-MEL-5 melanoma, 0.0193 µg/mL; with UACC-257 melanoma, 0.116 µg/mL; with HCC-2998 colon it was 0.243 µg/mL; with OVCAR-4 ovarian, 0.0742 µg/mL. The TGI in the test on HOP-62 NSCLC was determined as 2.08 µg/mL; with U251 CNS it was 1.84 µg/mL; with SK-MEL-5 melanoma it was 0.0525 µg/mL; with MOLT-4 leukemia, 0.019 µg/mL; with UACC-257 melanoma, 2.06 µg/mL; in the test on SF-268 CNS, 0.262 µg/mL. Besides, the TGI with SW-620 colon stood at 0.47 µg/mL; with HCC-2998 colon it was 0.912 µg/mL; in the test on CAKI-1 renal, 0.015 µg/mL; in the test on OVCAR-4 ovarian, 0.692 µg/mL.

On to `C=C(Cn1c(=O)c2ccccc2c2ccccc21)c1ccc(C(=O)Nc2ccccc2N)cc1`, for which the GI50 with HOP-62 NSCLC was 40.9 µM; in the test with U251 CNS, 16.3 µM; in the test on SK-MEL-5 melanoma, 20.6 µM; in the test with MOLT-4 leukemia, 0.0415 µM; in the test on UACC-257 melanoma, greater than 41.4 µM; in the test on SF-268 CNS, 12.6 µM. Also, the GI50 was 58.7 µM in the test with SW-620 colon, 31.1 µM in the test with HCC-2998 colon, 23.3 µM in the test with CAKI-1 renal and 5.22 µM with OVCAR-4 ovarian. The TGI with HOP-62 NSCLC is greater than 100 µM; in the test with U251 CNS it was greater than 100 µM; in the test with SK-MEL-5 melanoma, greater than 100 µM; with MOLT-4 leukemia it was 0.196 µM; in the test with UACC-257 melanoma it was greater than 100 µM; with SF-268 CNS, greater than 100 µM. The TGI with SW-620 colon, in the test on HCC-2998 colon, in the test on CAKI-1 renal and in the test on OVCAR-4 ovarian was greater than 100 µM throughout.

In the case of `CC1=C(C(=O)NCc2ccccc2)C(c2ccc(C3C(C(=O)NCc4ccccc4)=C(C)NC(C)=C3C(=O)NCc3ccccc3)cc2)C(C(=O)NCc2ccccc2)=C(C)N1`, the TGI in the test with HOP-62 NSCLC is 41.1 µM; in the test on U251 CNS, 14.4 µM; in the test with SK-MEL-5 melanoma, 30.9 µM; in the test with MOLT-4 leukemia it was greater than 100 µM; with UACC-257 melanoma it was 32.5 µM; in the test on SF-268 CNS, 81.7 µM. Further, the TGI in the test on SW-620 colon stood at 22.7 µM; with HCC-2998 colon it was 35.3 µM; with CAKI-1 renal, 34.9 µM; in the test with OVCAR-4 ovarian, 31.3 µM.

Take `Cc1nc2ccc(CN(C)c3ccc(C(=O)N[C@@H](CCC(=O)O)C(=O)O)s3)cc2c(=O)[nH]1`: the TGI in the test on HOP-62 NSCLC, in the test with U251 CNS, with SK-MEL-5 melanoma, in the test with MOLT-4 leukemia, in the test with UACC-257 melanoma and in the test on SF-268 CNS was greater than 100 µM each time. The TGI with SW-620 colon, in the test on HCC-2998 colon, in the test on CAKI-1 renal and in the test on OVCAR-4 ovarian was greater than 100 µM in each case. The GI50 in the test on SK-MEL-5 melanoma is 0.173 µM; with HCC-2998 colon it was less than 0.01 µM.

Consider `CNC(=O)c1cc(COc2nnc(Nc3ccc(Cl)cc3)c3ccoc23)ccn1`, for which the GI50 with HOP-62 NSCLC is 3.31 µM and 9.48 µM; in the test on U251 CNS it was 5.34 µM and 4.26 µM; with SK-MEL-5 melanoma it was 7.66 µM and 7.85 µM; in the test on MOLT-4 leukemia, 22.6 µM and > 10 µM; with UACC-257 melanoma it was 6.3 µM and > 10 µM; in the test on SF-268 CNS, 4.66 µM and > 10 µM. In addition, the GI50 in the test with SW-620 colon is 21.1 µM and > 10 µM; in the test with HCC-2998 colon it was 17 µM and > 10 µM; with CAKI-1 renal, 3.46 µM and > 10 µM; in the test with OVCAR-4 ovarian it was 2.87 µM and 3.16 µM. For the same molecule, the TGI with HOP-62 NSCLC is 16 µM and > 10 µM; in the test with U251 CNS, 16.8 µM and > 10 µM; in the test with SK-MEL-5 melanoma, greater than 47.1 µM; in the test on MOLT-4 leukemia, greater than 81.3 µM; in the test with UACC-257 melanoma, 35.6 µM and > 10 µM; in the test with SF-268 CNS, 26.2 µM and > 10 µM. For the same molecule, the TGI with SW-620 colon is 56.6 µM and > 10 µM; with HCC-2998 colon it was 52.7 µM and > 10 µM; in the test with CAKI-1 renal it was 19.7 µM and > 10 µM; in the test with OVCAR-4 ovarian it was 11.7 µM and > 10 µM.

In the case of `FC(F)(F)C1(Cl)C(c2ccccc2)=C1c1ccccc1`, the TGI in the test with HOP-62 NSCLC was 32.7 µM; in the test with U251 CNS it was 28.2 µM; in the test with SK-MEL-5 melanoma, 24 µM; with MOLT-4 leukemia, greater than 100 µM; in the test with UACC-257 melanoma, 27.2 µM; in the test with SF-268 CNS, 30.8 µM. Besides, the TGI was 27 µM in the test with SW-620 colon, 31.8 µM in the test with HCC-2998 colon, 25.3 µM in the test with CAKI-1 renal and 26.6 µM with OVCAR-4 ovarian.
